In PMC10112521, “High-throughput AR dimerization assay identifies androgen disrupting chemicals and metabolites” (Frontiers in Toxicology, 2023):
Several values for one entry are separate records, joined by “and”; a condition that tells them apart may be missing. Identical values can stand only once. Like-named read-outs stand apart in the source and are kept apart here.

Columns and labels:
AR2 cells (HepG2-AR2) [1] = assay: Alamar Blue (resazurin) post hoc cell viability / cytotoxicity assay in AR2 cells; settings: spid Viability, sheet antagonist_fits; for hill_tp (Hill model top): 0 where win_model is Constant
Protocol: (§1) For antagonist mode and cytotoxicity data, well-level normalized response (resp) was calculated as: resp=100 * RLU−bval/pval−bval where pval is the median RLU value of the MEC positive control wells (minimum four wells).

[2] = test system: human AR (LBD and AF2 domains) and the RID of human SRC2; parameters: method as in U.S. EPA, 2002b; settings: cited from earlier work
[3] = test system: full-length human AR and the receptor interacting domain (RID) of SRC1; parameters: method as in U.S. EPA, 2002b; settings: cited from earlier work
AR = test system: AR; parameters: method as in Kleinstreuer et al., 2017; settings: 2017, cited from earlier work; for Agonist reference: AR agonist reference class ref Kleinstreuer et al.; for Antagonist reference: AR antagonist reference class ref Kleinstreuer et al.
[4] = test system: human AR (LBD and AF2 domains) and the RID of human SRC2; parameters: method as in U.S. EPA, 2002b; settings: activity call, agonist mode, 2 h; invitroDBv3.4 ref U.S. EPA, 2002b; cited from earlier work
human AR [5] = target: T1, human AR (Homo sapiens, UniProt P10275); assay: AR2 assay, agonist mode: ligand-dependent AR homodimerization (NanoBiT luciferase complementation) in stable HepG2-AR2 cells; type: cell-based;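 on hill tp: Log2 fold change of luminescence over DMSO vehicle wells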;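 on max med: Log2 fold change of luminescence over DMSO vehicle wells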
T1 sequence (P10275 1-920) 1: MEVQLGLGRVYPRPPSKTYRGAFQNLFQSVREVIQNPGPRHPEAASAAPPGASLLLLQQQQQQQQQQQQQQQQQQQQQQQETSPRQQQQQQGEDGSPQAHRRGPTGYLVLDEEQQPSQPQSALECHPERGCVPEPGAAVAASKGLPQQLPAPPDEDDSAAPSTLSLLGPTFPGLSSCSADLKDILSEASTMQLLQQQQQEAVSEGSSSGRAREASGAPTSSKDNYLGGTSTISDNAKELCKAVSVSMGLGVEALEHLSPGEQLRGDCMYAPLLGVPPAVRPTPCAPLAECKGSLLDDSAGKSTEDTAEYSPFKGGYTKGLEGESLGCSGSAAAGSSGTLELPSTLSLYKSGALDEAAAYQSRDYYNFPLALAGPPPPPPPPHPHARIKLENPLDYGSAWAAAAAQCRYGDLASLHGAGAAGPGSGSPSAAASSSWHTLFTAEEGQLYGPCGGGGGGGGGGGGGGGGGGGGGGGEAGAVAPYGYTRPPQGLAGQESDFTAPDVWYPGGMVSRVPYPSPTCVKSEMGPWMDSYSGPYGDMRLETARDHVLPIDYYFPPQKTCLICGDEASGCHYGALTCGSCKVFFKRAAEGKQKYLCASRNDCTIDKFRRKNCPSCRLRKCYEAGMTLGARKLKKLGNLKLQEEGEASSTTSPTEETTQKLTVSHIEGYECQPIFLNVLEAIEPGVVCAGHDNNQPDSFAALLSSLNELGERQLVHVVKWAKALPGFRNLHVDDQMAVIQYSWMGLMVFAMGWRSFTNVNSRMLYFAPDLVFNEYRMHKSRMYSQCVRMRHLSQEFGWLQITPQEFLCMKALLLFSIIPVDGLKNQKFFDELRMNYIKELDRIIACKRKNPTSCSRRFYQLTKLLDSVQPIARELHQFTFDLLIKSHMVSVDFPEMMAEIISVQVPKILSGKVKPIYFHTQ
T1 sequence (P10275 1-920) 2: T1 sequence (P10275 1-920) 1

AR2 cells (HepG2-AR2) [6] = test system: AR2 cells (HepG2-AR2)
Protocol: as §1

human AR [7] = target: T1, human AR; assay: cell-based; parameters: species or system AR2 cells (HepG2-AR2); NanoLuc complementation AR homodimerization, agonist mode, luminescence gain, AC50 by Hill fit; settings: hill_ga
human AR [8] = target: T1, human AR; assay: AR2 assay, antagonist mode: disruption of R1881 (10 nM)-induced AR homodimerization in HepG2-AR2 cells; type: cell-based
human AR [9] = target: T1, human AR; assay: cell-based; parameters: species or system AR2 cells (HepG2-AR2); NanoLuc complementation AR homodimerization, antagonist mode, loss of agonist-induced luminescence, AC50 by Hill fit; settings: hill_ga, antagonist mode, 10 nM agonist stimulus, 18 h, no CYP expressed
human AR [10] = target: T1, human AR; assay: AR2 assay, antagonist mode, retrofitted with human CYP metabolism by mRNA transfection (biogroups no RNA, Bgal, ten CYPs)
human AR [11] = target: T1, human AR; assay: cell-based
[12] = activity call, antagonist mode, 2 h, invitroDBv3.4 ref U.S. EPA, 2002b
[13] = sheet agonist_fits, Hill model gain slope (Hill coefficient), 0 given where win_model is Constant
[14] = sheet agonist_fits, Hill model top (efficacy), 0 given where win_model is Constant
[15] = sheet agonist_fits, maximum median response
[16] = sheet agonist_fits, winning concentration-response model (Constant, Hill, Gain-Loss)
[17] = activity call, 8 h, single protocol detects agonists and antagonists, invitroDBv3.4 ref U.S. EPA, 2002b
[18] = activity call, 16 h, single protocol detects agonists and antagonists, invitroDBv3.4 ref U.S. EPA, 2002b
[19] = spid=Bgal, agonist mode, 18 h, no CYP expressed
[20] = activity call, antagonist mode, 18 h
[21] = spid AR_antagonist, sheet antagonist_fits
[22] = spid AR_antagonist, sheet antagonist_fits, 0 where win_model is Constant

SMILES | max_med (maximum median response) (AR2 cells (HepG2-AR2) [1]) | hill_tp (Hill model top) (AR2 cells (HepG2-AR2) [1]) | Agonist reference (AR) | Antagonist reference (AR) | Agonist reference (AR; Supplementary Table S1) | UPitt agonist [4] | UPitt antagonist [2, 12] | hill_gw (human AR [5]; [13]) | hill_tp (human AR [5]; [14]) | max_med (human AR [5]; [15]) | win_model (human AR [5]; [16]) | OT 8 hr [3, 17] | OT 16 hr [3, 18] | AC50 (human AR [7]; [19]) [nM] | Antagonist reference (AR; Supplementary Table S1) | max_med (maximum median response) (human AR [8]) | win_model (winning concentration-response model) (human AR [8]; [21]) | hill_gw (Hill model slope) (human AR [8]; [22]) | AC50 (human AR [9]; spid=Bgal) [nM] | AC50 (human AR [9]; spid=No_RNA) [nM] | other results
C[C@]12CCC(=O)C=C1CC[C@@H]1[C@@H]2CC[C@@]2(C)[C@H]1CC[C@]2(C)O [17-Methyltestosterone] | 23.6208 | 30.9505 | Strong | Inactive | Strong | 0 | – | – | – | – | – | – | – | – | – | – | – | – | – | – | UPitt antagonist [2]: 0; OT 8 hr [3]: 1; OT 16 hr [3]: 1
CC12CC1(C)C(=O)N(c1cc(Cl)cc(Cl)c1)C2=O (centres unmarked) [Procymidone] | 14.9874 | 19.1789 | – | Weak | – | – | 1 | 8 | 0.2332 | 0.2214 | Hill | 0 | 0 | > 99900 | Weak | 95.0019 | Hill | 0.938 | 3840 | 4230 | hill_ga (Hill model log AC50) (AR2 cells (HepG2-AR2) [6]): -1.506; AR2 antagonist (human AR [8]; [20]): 1
CC(C)(c1ccc(O)cc1)c1ccc(O)cc1 [Bisphenol A] | 20.3748 | 26.326 | – | Moderate | – | – | 1 | 0.5365 | 0.2654 | 0.1199 | Gain-Loss | 0 | 1 | > 99900 | Moderate | – | Hill | 1.098 | 13100 | 15900 | activity call in agonist mode (human AR [5]; 128-chemical evaluation, 18 h, active = maximal median response >5*bmad): tested negative; AR2 antagonist (human AR [8]; [20]): 1; max_med (maximum median response) (human AR [8]; [21]): 101.007; hill_tp (Hill model top) (human AR [8]; [22]): 118.275
C[C@]12CC[C@H]3C(=CCc4cc(O)ccc43)[C@@H]1CCC2=O [Equilin] | – | – | – | – | – | – | – | 1.401 | 3.175 | 3.181 | Hill | – | – | 2140 | – | 92.3262 | Hill | 1.131 | 487 | 861 | effect of CYP metabolism on AR antagonist activity (human AR [10]; CYP2C19 biogroup): reduced the potency; hill_tp (Hill model top) (AR2 cells (HepG2-AR2) [6]): 7.023; max_med (maximum median response) (AR2 cells (HepG2-AR2) [6]; spid Viability, sheet antagonist_fits): 12.8285; AC50 (human AR [7]; spid=No_RNA, agonist mode, 18 h, no CYP expressed): 2290 nM; hill_tp (Hill model top) (human AR [8]): 92.4898
CC1(C)[C@H](C(=O)O[C@H](C#N)c2cccc(Oc3ccccc3)c2)[C@@H]1C=C(Br)Br [Deltamethrin] | 34.81 | 34.1073 | Inactive | Inactive | Inactive | 0 | 0 | – | 0 | 0.0322 | Constant | 0 | 0 | – | Inactive | – | Hill | 2.614 | 12300 | 12800 | AR2 agonist (human AR [5]; activity call, agonist mode, 18 h): 0; AR2 antagonist (human AR [8]; [20]): 0; max_med (maximum median response) (human AR [8]; [21]): 65.39; hill_tp (Hill model top) (human AR [8]; [22]): 65.8008
CCC(=O)O[C@H]1CC[C@H]2[C@@H]3CCC4=CC(=O)CC[C@]4(C)[C@H]3CC[C@]12C [Testosterone propionate] | 32.5936 | 43.3025 | Strong | Inactive | Strong | 0 | – | – | – | – | – | – | – | – | – | 102.627 | – | – | – | – | change of AC50 value (human AR [10]; median across all biogroups versus CYP2C8, CYP2C9, CYP2C19, CYP3A4): more than 2 fold; AC50 (human AR [11]): 169 nM and 529 nM and 333 nM and 440 nM and 380 nM; UPitt antagonist [2]: 0; AR2 agonist (human AR [5]): 1; hill_gw (human AR [5]): 0.9765; hill_tp (human AR [5]): 2.087; max_med (human AR [5]): 2.0998; win_model (human AR [5]): Gain-Loss; OT 8 hr [3]: 1; OT 16 hr [3]: 1; AC50 (human AR [7]): 234 nM; AR2 antagonist (human AR [8]): 1; hill_gw (Hill model slope) (human AR [8]): 1.115; hill_tp (Hill model top) (human AR [8]): 100.853; win_model (winning concentration-response model) (human AR [8]): Hill
CC(=O)O[C@]1(C(C)=O)CC[C@H]2[C@@H]3C=C(Cl)C4=CC(=O)[C@@H]5C[C@@H]5[C@]4(C)[C@H]3CC[C@@]21C [Cyproterone acetate] | 16.8337 | 12.2685 | Weak | Moderate | Weak | 1 | 1 | – | – | – | – | 1 | 1 | – | Moderate | – | – | – | – | – | –
